# Where two headings read alike, the source gives them in different places.
# Tests used:
# [1] = test system: lipopolysaccharide (LPS)-induced inflammation; test: Rat LPS model, serum pro-inflammatory cytokines; type: in vivo, Sprague Dawley rats; details: oral, 4 days; 2 h after LPS
# Experimental: This assay was employed to determine the efficacies of CBG, compound 1, and compound 2 against lipopolysaccharide (LPS)-induced inflammation in Sprague Dawley rats.
# Eight- to 10-week-old male rats were treated with CBG, Compound 1, and Compound 2, or a positive control (cyclosporin A) for four days prior to treatment with LPS. Twenty-eight (28) Sprague Dawley male rats, 8-10 weeks old, were used for this study. Animals were randomized by weight into one of 7 treatment groups as shown in Table 10 below and treated for 4 days with either vehicle control (Groups 1 and 2), Cyclosporin A (Neoral) (Group 3), CBG at 30 mg/kg (Group 4), Compound 1 at 31.5 mg/kg (Group 5), Compound 2 at 32.7 mg/kg (Group 6) or CBG at 30 mg/kg (intraperitoneal/IP; Group 7). Groups 1-6 were dosed for 4 days by oral gavage; group 7 was dosed for 4 days by IP injection. After the 4th injection, Groups 2-7 received a single IP injection of LPS at 5 mg/kg to induce inflammation. Body weight was recorded every other day starting on the day of or day prior to the first day of treatment. A terminal body weight was recorded. General health and clinical signs were recorded once daily. Blood was collected to isolate immune cells at 2 hours after the LPS injection. […]
# Serum samples (N=82) were processed and shipped to Inotiv Boulder for analysis. […] The samples were analyzed for cytokine levels using the RECYTMAG-65K Luminex™ kit. […]
# UGT = UGT reaction phenotyping, all the UGTs combined; type: in vitro ADME, Human
# From the text: Experimental Summary: UGT Reaction Phenotyping (7 Isoforms).
# [2] = Quantification of CBG and CBG glucuronide in rat plasma (LC-MS/MS); type: in vivo, Sprague-Dawley rat
# Experimental: The purpose of this study was to quantify cannabigerol (CBG) in rat plasma and brain.
# Seven- to nine-week-old male and female Sprague-Dawley received either a single dose or once daily dosing for 21 days of vehicle or CBG at three different dosage levels as shown in the Table below.
# Approximately 0.2-0.25 mL blood was collected during the first 24 hours after the single dose, and at multiple times points after the terminal dose for the animals receiving daily dosing for 21 days. Liver, kidney, and colon samples were collected and fixed in 10% NBF for 48 hours, then stored in 70% ethanol at room temperature. Brain samples were collected and flash frozen.
# Analytical curves were constructed using non-zero standards with CBG concentration ranging from 0.0025 to 2.500 μg/mL and 2.500-100.0 μg/mL in blank rat plasma samples and 1.0 to 2500 ng/mL in blank brain tissues. A blank sample was used to exclude contamination.
# Instrument Used: AB SCIEX QTRAP 4500/Shimadzu Prominence LC
# [3] = Hepatocyte stability and metabolite profiling; type: in vitro ADME, human; details: cryopreserved hepatocytes in suspension; Human cryopreserved hepatocytes
# Experimental: (§1) The objective of this study was to investigate the stability of the test compound, CBG, in human, rat, dog, mouse, monkey and minipig cryopreserved hepatocytes. Follow-on metabolite profiling was performed.
# (§2) CBG was incubated up to 2 hr with cryopreserved hepatocytes. Cryopreserved hepatocytes in suspension were added to test compound in supplemented media following pre-incubation to initiate the reaction and the reactions were stopped by organic solvent at the appropriate time points. The termination plates were centrifuged and sample supernatants were analysed using Cyprotex generic LC MS/MS conditions to generate intrinsic clearance values for CBG. Two control compounds for each species were included in the assay and if the values for these compounds were not within the specified limits the results were rejected and the experiment repeated.
# (§3) Following the hepatocyte stability assay the samples were 59tilized for metabolite profiling using suitable high-resolution LC-MS/MS conditions. The 40 and 60 minute human samples, 20 and 120 minute rat samples, 10 and 20 minute dog and monkey samples, 20 and 60 minute mouse samples, and 40 and 120 minute minipig samples were compared against the 0 minute control sample to establish which and how many metabolites were formed. […] No further analysis was carried out with the mouse species.
# (§4) The areas and percentages reported for the parent and metabolites were calculated using the XIC data. Metabolite observed at greater than 1% of the total of drug related material are reported. […] For accuracy, a ppm error of less than 5 is desirable; when the response for a metabolite observed is low the ppm error maybe greater than 5. Where a metabolite has been referred to as a potential oxidation it can refer to a potential hydroxylation, epoxidation or oxide formation. Representative collision induced dissociation (CID) mass spectra were obtained for the metabolites found.
# [4] = test system: cryopreserved hepatocytes; test: Hepatocyte stability and metabolite profiling; type: in vitro ADME, human; details: human hepatocyte samples
# Experimental: as §1, §2, §3, §4
# [5] = Hepatocyte stability and metabolite profiling; type: in vitro ADME, monkey; details: cryopreserved hepatocytes in suspension; Monkey cryopreserved hepatocytes
# Experimental: as §1, §2, §3, §4
# [6] = test system: cryopreserved hepatocytes; test: Hepatocyte stability and metabolite profiling; type: in vitro ADME, monkey; details: monkey hepatocyte samples
# Experimental: as §1, §2, §3, §4
compound,measurement,setting,value
"CCCCCc1cc(OC)c(C/C=C(\C)CCC=C(C)C)c(OC)c1 [Compound 2, (E)-2-(3,7-dimethylocta-2,6-dien-1-yl)-1,3-dimethoxy-5-pentylbenzene]",reduction of IL-1B and IFNy relative to CBG (in words),[1],equal to or better than CBG
"CCCCCc1cc(O)c(C/C=C(\C)CCC=C(C)C)c(OC)c1 [Compound 1, (E)-2-(3,7-dimethylocta-2,6-dien-1-yl)-3-methoxy-5-pentylphenol]",Total UGT activity relative to that observed with CBG,UGT,23%
same,share of total UGT activity associated with UGT1A9 and UGT2B7,UGT,73%
"CCCCCc1cc(O)c(C/C=C(\C)CCC=C(C)C)c(O)c1 [CBG, cannabigerol]",CBG concentration in rat plasma (Day 21),"[2]; CBG 10 mg/kg oral gavage once daily, 15 min post Rx",BLQ (BLQ—Below Limit of Quantification (2.5 ng/ml))
same,CBG concentration in rat plasma (Day 21),"[2]; CBG 10 mg/kg oral gavage once daily, 30 min post Rx",BLQ (BLQ—Below Limit of Quantification (2.5 ng/ml))
same,CBG concentration in rat plasma (Day 21),"[2]; CBG 10 mg/kg oral gavage once daily, 24 hr post Rx",BLQ (BLQ—Below Limit of Quantification (2.5 ng/ml))
same,CBG concentration in rat plasma (Day 1),"[2]; CBG 10 mg/kg oral gavage once, 15 min post Rx",BLQ (BLQ—Below Limit of Quantification (2.5 ng/ml))
same,CBG concentration in rat plasma (Day 1),"[2]; CBG 10 mg/kg oral gavage once, 30 min post Rx",BLQ (BLQ—Below Limit of Quantification (2.5 ng/ml))
same,CBG concentration in rat plasma (Day 1),"[2]; CBG 10 mg/kg oral gavage once, 4 hr post Rx",BLQ (BLQ—Below Limit of Quantification (2.5 ng/ml))
same,CBG concentration in rat plasma (Day 1),"[2]; CBG 10 mg/kg oral gavage once, 8 hr post Rx",BLQ (BLQ—Below Limit of Quantification (2.5 ng/ml))
same,CBG concentration in rat plasma (Day 1),"[2]; CBG 10 mg/kg oral gavage once, 24 hr post Rx",BLQ (BLQ—Below Limit of Quantification (2.5 ng/ml))
same,CBG concentration in rat plasma (Day 21),"[2]; CBG 30 mg/kg oral gavage once daily, 30 min post Rx",BLQ (BLQ—Below Limit of Quantification (2.5 ng/ml))
same,CBG concentration in rat plasma (Day 21),"[2]; CBG 30 mg/kg oral gavage once daily, 1 hr post Rx",BLQ (BLQ—Below Limit of Quantification (2.5 ng/ml))
same,CBG concentration in rat plasma (Day 21),"[2]; CBG 30 mg/kg oral gavage once daily, 2 hr post Rx",BLQ (BLQ—Below Limit of Quantification (2.5 ng/ml))
same,CBG concentration in rat plasma (Day 21),"[2]; CBG 30 mg/kg oral gavage once daily, 4 hr post Rx",BLQ (BLQ—Below Limit of Quantification (2.5 ng/ml))
same,CBG concentration in rat plasma (Day 21),"[2]; CBG 30 mg/kg oral gavage once daily, 8 hr post Rx",BLQ (BLQ—Below Limit of Quantification (2.5 ng/ml))
same,CBG concentration in rat plasma (Day 21),"[2]; CBG 30 mg/kg oral gavage once daily, 24 hr post Rx",BLQ (BLQ—Below Limit of Quantification (2.5 ng/ml))
same,CBG concentration in rat plasma (Day 1),"[2]; CBG 30 mg/kg oral gavage once, 8 hr post Rx",BLQ (BLQ—Below Limit of Quantification (2.5 ng/ml))
same,CBG concentration in rat plasma (Day 21),"[2]; CBG 100 mg/kg oral gavage once daily, 24 hr post Rx",BLQ (BLQ—Below Limit of Quantification (2.5 ng/ml))
same,CBG concentration in rat plasma (Day 1),"[2]; CBG 100 mg/kg oral gavage once, 15 min post Rx",BLQ (BLQ—Below Limit of Quantification (2.5 ng/ml))
same,CBG concentration in rat plasma (Day 1),"[2]; CBG 100 mg/kg oral gavage once, 30 min post Rx",BLQ (BLQ—Below Limit of Quantification (2.5 ng/ml))
same,CBG concentration in rat plasma (Day 1),"[2]; CBG 100 mg/kg oral gavage once, 1 hr post Rx",BLQ (BLQ—Below Limit of Quantification (2.5 ng/ml))
same,CBG concentration in rat plasma (Day 1),"[2]; CBG 100 mg/kg oral gavage once, 2 hr post Rx",BLQ (BLQ—Below Limit of Quantification (2.5 ng/ml))
same,CBG concentration in rat plasma (Day 1),"[2]; CBG 100 mg/kg oral gavage once, 8 hr post Rx",BLQ (BLQ—Below Limit of Quantification (2.5 ng/ml))
same,CBG concentration in rat plasma (Day 1),"[2]; CBG 100 mg/kg oral gavage once, 24 hr post Rx",BLQ (BLQ—Below Limit of Quantification (2.5 ng/ml))
same,concentration at 1 h,"[2]; both sexes, Sprague-Dawley, rat, plasma, oral, 10 mg/kg, CBG 10 mg/kg oral gavage once daily, 1 hr post Rx, read-out: CBG concentration in rat plasma (Day 21)",1.67 ng/mL
same,concentration at 4 h,"[2]; both sexes, Sprague-Dawley, rat, plasma, oral, 10 mg/kg, CBG 10 mg/kg oral gavage once daily, 4 hr post Rx, read-out: CBG concentration in rat plasma (Day 21)",4.73 ng/mL
same,concentration at 8 h,"[2]; both sexes, Sprague-Dawley, rat, plasma, oral, 10 mg/kg, CBG 10 mg/kg oral gavage once daily, 8 hr post Rx, read-out: CBG concentration in rat plasma (Day 21)",2.55 ng/mL
same,concentration at 2 h,"[2]; both sexes, Sprague-Dawley, rat, plasma, oral, 10 mg/kg, CBG 10 mg/kg oral gavage once, 2 hr post Rx, read-out: CBG concentration in rat plasma (Day 1)",12 ng/mL
same,concentration at 15 min,"[2]; both sexes, Sprague-Dawley, rat, plasma, oral, 30 mg/kg, CBG 30 mg/kg oral gavage once, 15 min post Rx, read-out: CBG concentration in rat plasma (Day 1)",3.8 ng/mL
same,concentration at 30 min,"[2]; both sexes, Sprague-Dawley, rat, plasma, oral, 30 mg/kg, CBG 30 mg/kg oral gavage once, 30 min post Rx, read-out: CBG concentration in rat plasma (Day 1)",15.2 ng/mL
same,concentration at 24 h,"[2]; both sexes, Sprague-Dawley, rat, plasma, oral, 30 mg/kg, CBG 30 mg/kg oral gavage once, 24 hr post Rx, read-out: CBG concentration in rat plasma (Day 1)",2.75 ng/mL
same,concentration at 15 min,"[2]; both sexes, Sprague-Dawley, rat, plasma, oral, 100 mg/kg, CBG 100 mg/kg oral gavage once daily, 15 min post Rx, read-out: CBG concentration in rat plasma (Day 21)",41.6 ng/mL
same,concentration at 30 min,"[2]; both sexes, Sprague-Dawley, rat, plasma, oral, 100 mg/kg, CBG 100 mg/kg oral gavage once daily, 30 min post Rx, read-out: CBG concentration in rat plasma (Day 21)",178 ng/mL
same,concentration at 1 h,"[2]; both sexes, Sprague-Dawley, rat, plasma, oral, 100 mg/kg, CBG 100 mg/kg oral gavage once daily, 1 hr post Rx, read-out: CBG concentration in rat plasma (Day 21)",226 ng/mL
same,concentration at 2 h,"[2]; both sexes, Sprague-Dawley, rat, plasma, oral, 100 mg/kg, CBG 100 mg/kg oral gavage once daily, 2 hr post Rx, read-out: CBG concentration in rat plasma (Day 21)",307 ng/mL
same,concentration at 4 h,"[2]; both sexes, Sprague-Dawley, rat, plasma, oral, 100 mg/kg, CBG 100 mg/kg oral gavage once, 4 hr post Rx, read-out: CBG concentration in rat plasma (Day 1)",119 ng/mL
same,concentration of CBG in plasma (in words),"[2]; oral CBG 10-100 mg/kg, Days 1 and 21",low or below the level of quantitation (BLQ)
same,first pass metabolism to the glucuronide upon oral administration (in words),"[2]; oral CBG, rat",very high first pass metabolism to the glucuronide
same,half-life,[3],22.6 min
same,hepatocyte CLint,[3],61.4 µL/min/1e6 cells
same,number of metabolites observed,[4],Seven
same,half-life,[5],11.3 min
same,hepatocyte CLint,[5],122 µL/min/1e6 cells
same,number of metabolites observed,[6],four

# — patent publication US11992497B2 (priority 2021, dated 2024)
